{"source": "patent US20090075887A1", "about": "“Treatment with Kallikrein Inhibitors” (GENZYME CORPORATION, priority 2007, published 2009)", "biological_target": "plasma kallikrein (Homo sapiens, UniProt P03952)", "sequence (P03952 20-638)": "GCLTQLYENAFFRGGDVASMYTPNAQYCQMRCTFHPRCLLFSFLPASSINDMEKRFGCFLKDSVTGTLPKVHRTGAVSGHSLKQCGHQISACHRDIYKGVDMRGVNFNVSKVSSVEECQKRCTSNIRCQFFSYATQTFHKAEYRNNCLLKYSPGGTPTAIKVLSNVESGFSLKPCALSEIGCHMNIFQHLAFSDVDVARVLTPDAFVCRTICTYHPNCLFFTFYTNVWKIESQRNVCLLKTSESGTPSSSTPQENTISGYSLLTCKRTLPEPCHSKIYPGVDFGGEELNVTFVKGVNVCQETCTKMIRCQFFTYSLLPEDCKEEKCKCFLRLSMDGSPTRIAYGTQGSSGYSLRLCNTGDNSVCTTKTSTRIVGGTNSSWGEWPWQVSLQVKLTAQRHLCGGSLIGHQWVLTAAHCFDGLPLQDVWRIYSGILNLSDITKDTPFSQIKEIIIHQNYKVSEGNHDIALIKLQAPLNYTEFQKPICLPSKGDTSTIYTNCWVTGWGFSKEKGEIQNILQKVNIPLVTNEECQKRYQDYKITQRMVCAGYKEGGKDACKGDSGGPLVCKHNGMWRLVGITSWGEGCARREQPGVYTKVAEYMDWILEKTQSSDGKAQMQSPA", "test": "Inhibition constant for plasma kallikrein", "type": "biochemical", "conditions": "plasma kallikrein (PK); value used for the dose calculation", "note": "Bridges are numbered along the chain shown (N, C = ends). Where no end group is shown, it is not given here."}
{"sequence": "EAMHSFCAFKADDGPCRAAHPRWFFNIFTRQCEEFIYGGCEGNQNRFESLEECKKMCTRD (disulfide 7-57, 16-40, 32-53) [DX88]", "values": [{"measurement": "Ki", "value": 0.044, "unit": "nM"}]}
